Experimental data published in the kinase profiling compilation of Christmann-Franck et al. (2016).

How the values were obtained:
Assay in all cases: radiometric filter-binding kinase assay
[1] = test system: AKT1 (human), P31749 [S473D]
AURKA (human) = AURKA (human) (UniProt O14965)
BRSK2 (human) = BRSK2 (human) (UniProt Q8IWQ3)
CHEK2 (human) = CHEK2 (human) (UniProt O96017)
CaMK1 (human) = CaMK1 (human) (UniProt Q14012)
DYRK1A (human) = DYRK1A (human) (UniProt Q13627)
DYRK2 (human) = DYRK2 (human) (UniProt Q92630)
EPHB2 (human) = EPHB2 (human) (UniProt P29323)
EPHB3 (human) = EPHB3 (human) (UniProt P54753)
ERBB4 (human) = ERBB4 (human) (UniProt Q15303)
HIPK2 (human) = HIPK2 (human) (UniProt Q9H2X6)
IKBKE (human) = IKBKE (human) (UniProt Q14164)
MAP2K6 (human) = MAP2K6 (human) (UniProt P52564)
MAP3K11 (human) = MAP3K11 (human) (UniProt Q16584)
MAPK1 (human) = MAPK1 (human) (UniProt P28482)
MAPK10 (human) = MAPK10 (human) (UniProt P53779)
MAPK12 (human) = MAPK12 (human) (UniProt P53778)
MAPK13 (human) = MAPK13 (human) (UniProt O15264)
MAPK3 (human) = MAPK3 (human) (UniProt P27361)
MAPK8 (human) = MAPK8 (human) (UniProt P45983)
MAPKAPK3 (human) = MAPKAPK3 (human) (UniProt Q16644)
MARK2 (human) = MARK2 (human) (UniProt Q7KZI7)
MKNK1 (human) = MKNK1 (human) (UniProt Q9BUB5)
MST4 (human) = MST4 (human) (UniProt Q9P289)
NEK2 (human) = NEK2 (human) (UniProt P51955)
NUAK1 (human) = NUAK1 (human) (UniProt O60285)
PAK4 (human) = PAK4 (human) (UniProt O96013)
PAK7 (human) = PAK7 (human) (UniProt Q9P286)
PLK1 (human) = PLK1 (human) (UniProt P53350)
PRKAA1 or PRKAA2 (rat) = conditions: accession and sequence are those of the human protein
PRKACA (human) = PRKACA (human) (UniProt P17612)
PRKCA (human) = PRKCA (human) (UniProt P17252)
RPS6KA1 KD1 KD2 (human) = RPS6KA1 KD1 KD2 (human) (UniProt Q15418)
[2] = test system: SGK1 (human), O00141 [S422D]
SYK (human) = SYK (human) (UniProt P43405)

IKBKE (human), sequence (Q14164 whole entry, looked up): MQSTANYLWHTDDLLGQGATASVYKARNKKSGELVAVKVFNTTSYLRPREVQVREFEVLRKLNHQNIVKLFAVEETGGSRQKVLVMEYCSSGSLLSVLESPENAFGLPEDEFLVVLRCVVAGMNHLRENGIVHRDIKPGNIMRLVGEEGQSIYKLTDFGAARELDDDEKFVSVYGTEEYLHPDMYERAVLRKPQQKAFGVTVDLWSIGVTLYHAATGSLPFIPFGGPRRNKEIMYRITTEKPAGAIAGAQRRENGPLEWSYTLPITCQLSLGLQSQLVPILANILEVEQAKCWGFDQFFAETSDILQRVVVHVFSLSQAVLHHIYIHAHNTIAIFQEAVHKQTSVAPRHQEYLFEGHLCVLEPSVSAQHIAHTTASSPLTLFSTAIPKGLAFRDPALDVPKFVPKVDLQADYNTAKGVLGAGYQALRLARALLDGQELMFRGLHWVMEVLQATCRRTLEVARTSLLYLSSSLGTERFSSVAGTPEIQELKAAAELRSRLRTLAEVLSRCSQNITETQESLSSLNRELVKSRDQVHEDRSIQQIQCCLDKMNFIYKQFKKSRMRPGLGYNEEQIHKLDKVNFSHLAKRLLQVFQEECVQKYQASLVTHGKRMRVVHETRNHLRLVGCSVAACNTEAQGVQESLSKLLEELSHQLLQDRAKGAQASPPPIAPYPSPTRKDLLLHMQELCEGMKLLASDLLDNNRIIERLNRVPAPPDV
PLK1 (human), sequence (P53350 whole entry, looked up): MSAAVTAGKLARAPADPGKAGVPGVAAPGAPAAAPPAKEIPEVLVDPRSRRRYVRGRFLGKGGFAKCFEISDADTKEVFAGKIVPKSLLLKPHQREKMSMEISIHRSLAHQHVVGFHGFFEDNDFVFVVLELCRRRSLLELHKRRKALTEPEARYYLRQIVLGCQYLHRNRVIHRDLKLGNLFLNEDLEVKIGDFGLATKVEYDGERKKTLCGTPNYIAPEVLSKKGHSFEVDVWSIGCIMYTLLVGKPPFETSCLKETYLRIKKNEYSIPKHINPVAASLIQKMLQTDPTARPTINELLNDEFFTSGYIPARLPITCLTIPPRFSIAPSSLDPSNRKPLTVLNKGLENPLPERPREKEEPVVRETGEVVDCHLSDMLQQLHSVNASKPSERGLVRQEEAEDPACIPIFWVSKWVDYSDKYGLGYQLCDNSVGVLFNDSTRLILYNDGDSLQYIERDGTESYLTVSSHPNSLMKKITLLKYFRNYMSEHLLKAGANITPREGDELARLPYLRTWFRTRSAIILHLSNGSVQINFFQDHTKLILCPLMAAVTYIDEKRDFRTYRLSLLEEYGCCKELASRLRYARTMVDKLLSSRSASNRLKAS
MAP2K6 (human), sequence (P52564 whole entry, looked up): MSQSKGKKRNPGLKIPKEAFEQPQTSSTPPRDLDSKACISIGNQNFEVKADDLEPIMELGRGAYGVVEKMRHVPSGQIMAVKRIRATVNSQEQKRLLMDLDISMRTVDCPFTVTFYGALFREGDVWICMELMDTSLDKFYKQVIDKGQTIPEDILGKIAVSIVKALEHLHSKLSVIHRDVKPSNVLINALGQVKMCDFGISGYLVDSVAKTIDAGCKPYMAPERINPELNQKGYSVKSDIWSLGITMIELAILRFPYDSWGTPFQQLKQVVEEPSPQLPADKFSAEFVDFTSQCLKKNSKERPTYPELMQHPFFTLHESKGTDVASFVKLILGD
CaMK1 (human), sequence (Q14012 whole entry, looked up): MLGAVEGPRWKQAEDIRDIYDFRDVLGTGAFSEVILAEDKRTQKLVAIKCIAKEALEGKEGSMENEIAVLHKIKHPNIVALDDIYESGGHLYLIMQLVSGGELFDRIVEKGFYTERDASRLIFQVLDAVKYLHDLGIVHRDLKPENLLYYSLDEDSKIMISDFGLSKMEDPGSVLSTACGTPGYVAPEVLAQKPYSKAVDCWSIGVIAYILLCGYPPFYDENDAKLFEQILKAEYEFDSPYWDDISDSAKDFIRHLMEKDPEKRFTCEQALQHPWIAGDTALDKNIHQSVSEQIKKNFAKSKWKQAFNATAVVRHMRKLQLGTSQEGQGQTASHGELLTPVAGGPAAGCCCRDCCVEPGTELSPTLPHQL
MARK2 (human), sequence (Q7KZI7 whole entry, looked up): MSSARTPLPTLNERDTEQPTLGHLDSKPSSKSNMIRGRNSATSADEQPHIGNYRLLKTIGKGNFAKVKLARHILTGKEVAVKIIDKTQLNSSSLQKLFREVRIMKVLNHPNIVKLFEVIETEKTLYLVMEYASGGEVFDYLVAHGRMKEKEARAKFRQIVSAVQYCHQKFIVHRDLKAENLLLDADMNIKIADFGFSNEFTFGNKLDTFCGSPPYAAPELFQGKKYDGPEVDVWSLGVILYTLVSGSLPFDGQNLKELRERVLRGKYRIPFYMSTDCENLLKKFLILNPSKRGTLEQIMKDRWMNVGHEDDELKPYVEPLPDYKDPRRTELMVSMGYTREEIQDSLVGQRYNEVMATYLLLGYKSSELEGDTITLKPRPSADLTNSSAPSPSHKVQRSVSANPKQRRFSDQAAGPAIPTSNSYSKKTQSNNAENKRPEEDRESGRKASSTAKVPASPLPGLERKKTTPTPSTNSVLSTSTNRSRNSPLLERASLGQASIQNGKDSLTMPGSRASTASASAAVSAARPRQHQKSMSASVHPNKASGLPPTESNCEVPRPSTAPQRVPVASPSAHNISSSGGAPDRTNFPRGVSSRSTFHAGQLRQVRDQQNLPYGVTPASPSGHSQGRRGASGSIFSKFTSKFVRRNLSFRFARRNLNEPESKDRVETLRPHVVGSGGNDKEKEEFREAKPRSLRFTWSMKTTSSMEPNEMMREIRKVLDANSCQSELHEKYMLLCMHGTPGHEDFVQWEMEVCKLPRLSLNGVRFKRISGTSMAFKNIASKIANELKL
MAPK10 (human), sequence (P53779 whole entry, looked up): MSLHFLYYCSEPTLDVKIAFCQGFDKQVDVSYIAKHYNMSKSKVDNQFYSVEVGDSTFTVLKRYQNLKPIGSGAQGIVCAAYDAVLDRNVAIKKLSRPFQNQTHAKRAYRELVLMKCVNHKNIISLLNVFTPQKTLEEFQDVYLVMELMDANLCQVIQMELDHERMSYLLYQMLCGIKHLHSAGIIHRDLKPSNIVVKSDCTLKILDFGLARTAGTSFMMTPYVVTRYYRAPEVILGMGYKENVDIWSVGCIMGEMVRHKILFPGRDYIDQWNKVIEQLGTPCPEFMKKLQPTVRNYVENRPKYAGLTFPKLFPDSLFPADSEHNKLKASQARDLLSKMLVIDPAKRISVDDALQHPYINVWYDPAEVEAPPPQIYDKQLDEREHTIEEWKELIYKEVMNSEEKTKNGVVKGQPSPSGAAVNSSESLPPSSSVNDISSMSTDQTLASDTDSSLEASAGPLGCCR
NUAK1 (human), sequence (O60285 whole entry, looked up): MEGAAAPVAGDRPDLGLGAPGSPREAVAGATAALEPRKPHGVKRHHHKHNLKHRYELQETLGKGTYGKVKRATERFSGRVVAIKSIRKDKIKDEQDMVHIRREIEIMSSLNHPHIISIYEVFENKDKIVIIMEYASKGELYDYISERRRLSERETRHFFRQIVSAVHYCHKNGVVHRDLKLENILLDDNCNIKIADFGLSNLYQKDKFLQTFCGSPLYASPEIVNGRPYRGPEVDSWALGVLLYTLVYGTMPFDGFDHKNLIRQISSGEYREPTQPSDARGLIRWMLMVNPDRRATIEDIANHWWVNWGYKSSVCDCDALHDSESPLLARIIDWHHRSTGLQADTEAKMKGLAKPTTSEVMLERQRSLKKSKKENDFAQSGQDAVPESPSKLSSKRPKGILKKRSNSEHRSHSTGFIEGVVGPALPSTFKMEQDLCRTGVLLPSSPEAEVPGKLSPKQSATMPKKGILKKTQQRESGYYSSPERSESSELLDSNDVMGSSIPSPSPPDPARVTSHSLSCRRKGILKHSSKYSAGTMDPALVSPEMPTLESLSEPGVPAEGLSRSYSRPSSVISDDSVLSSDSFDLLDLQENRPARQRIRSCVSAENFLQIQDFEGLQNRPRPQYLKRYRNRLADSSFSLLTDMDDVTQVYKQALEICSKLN
MAPK12 (human), sequence (P53778 whole entry, looked up): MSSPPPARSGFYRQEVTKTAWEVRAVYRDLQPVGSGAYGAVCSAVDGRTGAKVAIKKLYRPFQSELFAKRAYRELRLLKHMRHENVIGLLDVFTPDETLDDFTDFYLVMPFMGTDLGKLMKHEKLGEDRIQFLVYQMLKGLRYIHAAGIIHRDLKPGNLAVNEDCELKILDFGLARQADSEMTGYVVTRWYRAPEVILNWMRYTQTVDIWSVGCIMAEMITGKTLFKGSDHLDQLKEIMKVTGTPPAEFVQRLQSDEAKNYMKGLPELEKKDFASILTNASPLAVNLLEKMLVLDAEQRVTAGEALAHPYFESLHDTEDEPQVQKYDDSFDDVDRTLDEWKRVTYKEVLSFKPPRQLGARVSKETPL

Compound `COc1cc(C(=O)N2CCOCC2)c(F)cc1Nc1ncc(C(F)(F)F)c(NC2CC2)n1` has a residual activity ([1]; compound 1.0 µM) of 93%, a residual activity ([1]; compound 10.0 µM) of 97% and a residual activity (AURKA (human); compound 1.0 µM) of 105%. The residual activity (AURKA (human); compound 10.0 µM) was 81%, the residual activity (BRSK2 (human); compound 1.0 µM) was 88% and the residual activity (BRSK2 (human); compound 10.0 µM) was 51%. The residual activity (CHEK2 (human); compound 1.0 µM) was 18%, the residual activity (CHEK2 (human); compound 10.0 µM) was 3% and the residual activity (CaMK1 (human); compound 1.0 µM) was 92%. It also gave a residual activity (CaMK1 (human); compound 10.0 µM) of 51%, a residual activity (DYRK1A (human); compound 1.0 µM) of 78% and a residual activity (DYRK1A (human); compound 10.0 µM) of 38%. The residual activity (DYRK2 (human); compound 1.0 µM) was 40%, the residual activity (DYRK2 (human); compound 10.0 µM) was 9% and the residual activity (EPHB2 (human); compound 1.0 µM) was 92%. For the same compound, the residual activity (EPHB2 (human); compound 10.0 µM) was 97%, the residual activity (EPHB3 (human); compound 1.0 µM) was 91% and the residual activity (EPHB3 (human); compound 10.0 µM) was 105%. The residual activity (ERBB4 (human); compound 1.0 µM) was 74%, the residual activity (ERBB4 (human); compound 10.0 µM) was 65% and the residual activity (HIPK2 (human); compound 1.0 µM) was 70%. The residual activity (HIPK2 (human); compound 10.0 µM) was 28%, the residual activity (IKBKE (human); compound 1.0 µM) was 94% and the residual activity (IKBKE (human); compound 10.0 µM) was 55%. For the same compound, the residual activity (MAP2K6 (human); compound 1.0 µM) was 71%, the residual activity (MAP2K6 (human); compound 10.0 µM) was 31% and the residual activity (MAP3K11 (human); compound 1.0 µM) was 35%. The residual activity (MAP3K11 (human); compound 10.0 µM) was 9%, the residual activity (MAPK1 (human); compound 1.0 µM) was 95% and the residual activity (MAPK1 (human); compound 10.0 µM) was 55%. It also gave a residual activity (MAPK10 (human); compound 1.0 µM) of 80%, a residual activity (MAPK10 (human); compound 10.0 µM) of 48% and a residual activity (MAPK12 (human); compound 1.0 µM) of 98%. For the same compound, the residual activity (MAPK12 (human); compound 10.0 µM) was 96%, the residual activity (MAPK13 (human); compound 1.0 µM) was 97% and the residual activity (MAPK3 (human); compound 1.0 µM) was 79%. It also gave a residual activity (MAPK3 (human); compound 10.0 µM) of 49%, a residual activity (MAPK8 (human); compound 1.0 µM) of 83% and a residual activity (MAPK8 (human); compound 10.0 µM) of 47%. For the same compound, the residual activity (MAPKAPK3 (human); compound 1.0 µM) was 108%, the residual activity (MAPKAPK3 (human); compound 10.0 µM) was 124% and the residual activity (MARK2 (human); compound 1.0 µM) was 100%. It also gave a residual activity (MARK2 (human); compound 10.0 µM) of 81%, a residual activity (MKNK1 (human); compound 1.0 µM) of 74% and a residual activity (MKNK1 (human); compound 10.0 µM) of 26%. It also gave a residual activity (MST4 (human); compound 1.0 µM) of 89%, a residual activity (MST4 (human); compound 10.0 µM) of 87% and a residual activity (NEK2 (human); compound 1.0 µM) of 97%. For the same compound, the residual activity (NEK2 (human); compound 10.0 µM) was 72%, the residual activity (NUAK1 (human); compound 1.0 µM) was 41% and the residual activity (NUAK1 (human); compound 10.0 µM) was 9%. It also gave a residual activity (PAK4 (human); compound 1.0 µM) of 85%, a residual activity (PAK4 (human); compound 10.0 µM) of 42% and a residual activity (PAK7 (human); compound 1.0 µM) of 94%. It also gave a residual activity (PAK7 (human); compound 10.0 µM) of 79%, a residual activity (PLK1 (human); compound 1.0 µM) of 78% and a residual activity (PLK1 (human); compound 10.0 µM) of 40%. For the same compound, the residual activity (PRKAA1 or PRKAA2 (rat); compound 10.0 µM) was 70%, the residual activity (PRKACA (human); compound 1.0 µM) was 102% and the residual activity (PRKCA (human); compound 1.0 µM) was 96%. The residual activity (PRKCA (human); compound 10.0 µM) was 101%, the residual activity (RPS6KA1 KD1 KD2 (human); compound 1.0 µM) was 54% and the residual activity (RPS6KA1 KD1 KD2 (human); compound 10.0 µM) was 14%. The residual activity ([2]; compound 1.0 µM) was 88%, the residual activity ([2]; compound 10.0 µM) was 70% and the residual activity (SYK (human); compound 10.0 µM) was 44%.
`N#Cc1c(C2CCNCC2)cc(-c2c(O)cccc2OCC2CC2)nc1N` showed a residual activity ([1]; compound 1.0 µM) of 81%, a residual activity ([1]; compound 10.0 µM) of 63% and a residual activity (AURKA (human); compound 1.0 µM) of 111%. It also gave a residual activity (AURKA (human); compound 10.0 µM) of 91%, a residual activity (BRSK2 (human); compound 1.0 µM) of 92% and a residual activity (BRSK2 (human); compound 10.0 µM) of 46%. The residual activity (CHEK2 (human); compound 1.0 µM) was 60%, the residual activity (CHEK2 (human); compound 10.0 µM) was 34% and the residual activity (CaMK1 (human); compound 1.0 µM) was 85%. It also gave a residual activity (CaMK1 (human); compound 10.0 µM) of 27%, a residual activity (DYRK1A (human); compound 1.0 µM) of 99% and a residual activity (DYRK1A (human); compound 10.0 µM) of 80%. It also gave a residual activity (DYRK2 (human); compound 1.0 µM) of 91%, a residual activity (DYRK2 (human); compound 10.0 µM) of 91% and a residual activity (EPHB2 (human); compound 1.0 µM) of 119%. For the same compound, the residual activity (EPHB2 (human); compound 10.0 µM) was 113%, the residual activity (EPHB3 (human); compound 1.0 µM) was 94% and the residual activity (EPHB3 (human); compound 10.0 µM) was 74%. For the same compound, the residual activity (ERBB4 (human); compound 1.0 µM) was 71%, the residual activity (ERBB4 (human); compound 10.0 µM) was 67% and the residual activity (HIPK2 (human); compound 1.0 µM) was 80%. It also gave a residual activity (HIPK2 (human); compound 10.0 µM) of 59%, a residual activity (IKBKE (human); compound 1.0 µM) of 87% and a residual activity (IKBKE (human); compound 10.0 µM) of 96%. For the same compound, the residual activity (MAP2K6 (human); compound 1.0 µM) was 76%, the residual activity (MAP2K6 (human); compound 10.0 µM) was 83% and the residual activity (MAP3K11 (human); compound 1.0 µM) was 87%. The residual activity (MAP3K11 (human); compound 10.0 µM) was 44%, the residual activity (MAPK1 (human); compound 1.0 µM) was 101% and the residual activity (MAPK1 (human); compound 10.0 µM) was 76%. The residual activity (MAPK10 (human); compound 1.0 µM) was 73%, the residual activity (MAPK10 (human); compound 10.0 µM) was 68% and the residual activity (MAPK12 (human); compound 1.0 µM) was 94%. For the same compound, the residual activity (MAPK12 (human); compound 10.0 µM) was 72%, the residual activity (MAPK13 (human); compound 1.0 µM) was 85% and the residual activity (MAPK13 (human); compound 10.0 µM) was 68%. It also gave a residual activity (MAPK3 (human); compound 1.0 µM) of 85%, a residual activity (MAPK3 (human); compound 10.0 µM) of 80% and a residual activity (MAPK8 (human); compound 1.0 µM) of 110%. It also gave a residual activity (MAPK8 (human); compound 10.0 µM) of 80%, a residual activity (MAPKAPK3 (human); compound 1.0 µM) of 87% and a residual activity (MAPKAPK3 (human); compound 10.0 µM) of 85%. For the same compound, the residual activity (MARK2 (human); compound 1.0 µM) was 89%, the residual activity (MARK2 (human); compound 10.0 µM) was 96% and the residual activity (MKNK1 (human); compound 1.0 µM) was 101%. For the same compound, the residual activity (MKNK1 (human); compound 10.0 µM) was 90%, the residual activity (MST4 (human); compound 1.0 µM) was 113% and the residual activity (MST4 (human); compound 10.0 µM) was 102%. It also gave a residual activity (NEK2 (human); compound 1.0 µM) of 85%, a residual activity (NEK2 (human); compound 10.0 µM) of 94% and a residual activity (NUAK1 (human); compound 1.0 µM) of 53%. It also gave a residual activity (NUAK1 (human); compound 10.0 µM) of 24%, a residual activity (PAK4 (human); compound 1.0 µM) of 112% and a residual activity (PAK4 (human); compound 10.0 µM) of 69%. For the same compound, the residual activity (PAK7 (human); compound 1.0 µM) was 84%, the residual activity (PAK7 (human); compound 10.0 µM) was 75% and the residual activity (PLK1 (human); compound 1.0 µM) was 83%. For the same compound, the residual activity (PLK1 (human); compound 10.0 µM) was 87%, the residual activity (PRKAA1 or PRKAA2 (rat); compound 1.0 µM) was 85% and the residual activity (PRKAA1 or PRKAA2 (rat); compound 10.0 µM) was 50%. The residual activity (PRKACA (human); compound 1.0 µM) was 83%, the residual activity (PRKACA (human); compound 10.0 µM) was 95% and the residual activity (PRKCA (human); compound 1.0 µM) was 117%. It also gave a residual activity (PRKCA (human); compound 10.0 µM) of 55%, a residual activity (RPS6KA1 KD1 KD2 (human); compound 1.0 µM) of 45% and a residual activity (RPS6KA1 KD1 KD2 (human); compound 10.0 µM) of 6%. The residual activity ([2]; compound 1.0 µM) was 96%, the residual activity ([2]; compound 10.0 µM) was 69% and the residual activity (SYK (human); compound 1.0 µM) was 88%. For the same compound, the residual activity (SYK (human); compound 10.0 µM) was 81%.
